Literature values in US20060014732A1, “Use of targeted oxidative therapeutic formulation in treatment of burns” (priority 2004, published 2006).

Columns and labels:
[1] = test system: multiple-drug resistant strain of Staphylococcus aureus; conditions: growing culture of S. aureus, 8 hours, with or without illumination
E. coli = conditions: increasing concentration of peroxide ex-vivo in rabbit or human blood
[2] = test system: peroxide-sensitive E. coli; conditions: infused into the blood

CC1=C(CCC(=O)O)c2cc3nc(cc4[nH]c(cc4C)cc4[nH]c(cc1n2)cc4C)C(C)=C3CCC(=O)O [deuteroporphyrin]
bactericidal effect in culture [1]: strongly bactericidal only after photosensitization

OO [hydrogen peroxide, Hydrogen peroxide]
direct bactericidal activity (E. coli): no evidence of direct bactericidal activity
bactericidal effect [2]: no bactericidal effect

hemin
bactericidal effect in culture [1]: moderately bactericidal but light independent
